Here are results for four molecules from PMC7396128 (Nature medicine, 2019).

Series [1] concerns HIV-1IIIB. The series is classed as cell-based. To be noted: MT-4 cells.
A further series has as its system MT-4 cells. The following applies: read-out: mean 50% cytotoxicity concentration, CC50.
The subject of another series is HIV-1. To be noted: 500 nM, 12 hpi, MOI 70.
The test system of another series is HIV-1YU2. Kind of series: antiviral efficacy in HIV-1YU2-infected humanized NOG mice. The series is classed as in vivo.
The test system of series [2] is HIV-1IIIB. Kind of series: ultrastructural analysis of HIV-1 virions by electron microscopy. The series is classed as cell-based. The following applies: 500 nM.

Consider `Cc1[nH]c2ccccc2c1CC(=O)N[C@@H](Cc1ccccc1)C(=O)N(C)c1ccccc1` [PF74], for which, in the series with HIV-1IIIB [1], the “selectivity index (CC50/EC50 ratio)” value came to 26. In addition, the “fold weaker antiviral potency than GS-CA1” value in the series on HIV-1IIIB [1] (HIV-1IIIB) is listed as > 5,000 fold. Besides, the EC50 in the series with HIV-1IIIB [1] (read-out: mean EC50, HIV-1IIIB, n = 43) worked out at 1.24 µM. Further, the CC50 with MT-4 cells stood at 32.2 ± 9.3 µM.
For the molecule `Cc1cc(/C=C/C#N)cc(C)c1Nc1ccnc(Nc2ccc(C#N)cc2)n1` [RPV, rilpivirine], in the series on HIV-1, the capsid levels was 100 % of control and the vDNA is listed as 14 % of control. Moreover, the “treated animals with rapid emergence of drug resistance” value with HIV-1YU2 (160 mg/kg every 2 weeks) came out at 80%. Moreover, the “animals returning to baseline viremia by week 10” value in the series on HIV-1YU2 (160 mg/kg s.c. daily for 7 days then every two weeks) was 4/5.
Consider `C[C@@H]1CCO[C@H]2Cn3cc(C(=O)NCc4ccc(F)cc4F)c(=O)c(O)c3C(=O)N12` [DTG, dolutegravir], for which the “effect on capsid and vDNA fluorescent signals” value with HIV-1 is “did not alter either fluorescent signal”.
Regarding `COC(=O)N[C@H](C(=O)N[C@@H](Cc1ccccc1)[C@@H](O)CN(Cc1ccc(-c2ccccn2)cc1)NC(=O)[C@@H](NC(=O)OC)C(C)(C)C)C(C)(C)C` [ATV, atazanavir], the “capsid morphology in released virions” value in the series on HIV-1IIIB [2] was “predominantly contained immature Gag/Gag-Pol lattices”.
